{"source": "patent EP2951180B1", "about": "“2,6,7,8 SUBSTITUTED PURINES AS HDM2 INHIBITORS” (Merck Sharp & Dohme Corp., priority 2013, dated 2014)"}
{"molecular_target": "T1, HDM2 (Homo sapiens, UniProt Q00987)", "T1 construct": "Thioredoxin (N); made in house; host or cells: E. coli strain BL21(DE3)Rosetta", "T1 sequence (Q00987 17-125)": "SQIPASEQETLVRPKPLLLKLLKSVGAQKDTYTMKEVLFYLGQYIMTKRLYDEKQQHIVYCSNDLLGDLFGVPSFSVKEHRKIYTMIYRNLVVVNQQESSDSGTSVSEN", "test": "HDM2 FRET assay (inhibition of binding of FITC labeled p53-pocket peptide to HDM2)", "details": "0.5 nM HDM2 (residues 17 to 125), 3nM peptide, two hour incubation at room temperature; read-out: FRET IC50", "method_in_brief": "(§1)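 Signal is read as the 520/495 nm emission ratio and converted to percent inhibition; nonlinear sigmoidal regression yields IC50. The assay mixes HDM2 (0.5 nM), FITC-p53 peptide (3 nM) and Tb anti-His antibody (0.25 nM) at 0.1% DMSO.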", "units": {"IC50": "nM"}}
{"smiles": "C[C@@H](Nc1nc(-c2nc(=O)n(C)[nH]2)nc2nc(N3CCOC[C@H]3c3ccccc3)n(C[C@H]3CC[C@H](C)CC3)c12)C1CCC1", "note": "[Example 12.19, 5-(6-{[(1R)-1-cyclobutylethyl]amino}-7-[(trans-4-methylcyclohexyl)methyl]-8-[(3R)-3-phenylmorpholin-4-yl]-7H-purine-2-yl)-2-methyl-2,4-dihydro-3H-1,2,4-triazol-3-one]", "IC50": 1.61}
{"smiles": "C[C@@H](Nc1nc(C(O)CO)nc2nc(N3CCOC[C@H]3c3ccccc3)n(C[C@H]3CC[C@H](C)CC3)c12)C1CCC1", "note": "(stereo partly drawn) [Example 12.20, 1-(6-(((R)-1-cyclobutylethyl)amino)-7-((trans-4-methylcyclohexyl)methyl)-8-((R)-3-phenylmorpholino)-7H-purin-2-yl)ethane-1,2-diol]", "IC50": 49.4}
{"smiles": "CC(=O)c1nc(N[C@H](C)C2CCC2)c2c(n1)nc(N1CCOC[C@H]1c1ccccc1)n2C[C@H]1CC[C@H](C)CC1", "note": "[Example 12.21, 1-(6-{[(1R)-1-cyclobutylethyl]amino}-7-[(trans-4-methylcyclohexyl)methyl]-8-[(3R)-3-phenylmorpholin-4-yl]-7H-purin-2-yl)ethanone]", "IC50": 53.3}
{"smiles": "C[C@@H](Nc1nc(CO)nc2nc(N3CCOC[C@H]3c3ccccc3)n(C[C@H]3CC[C@H](C)CC3)c12)C1CCC1", "note": "[Example 12.22, (6-{[(1R)-1-cyclobutylethyl]amino}-7-[(trans-4-methylcyclohexyl)methyl]-8-[(3R)-3-phenylmorpholin-4-yl]-7H-purin-2-yl)methanol]", "IC50": 78.6}
{"smiles": "CC(=O)c1nc(N[C@H](C)C2CCC2)c2c(n1)nc(N1CCOC[C@H]1c1ccccc1)n2C[C@H]1CC[C@H](C)CC1", "note": "[Example 12.23, 1-(6-{[(1R)-1-cyclobutylethyl]amino}-7-[(trans-4-methylcyclohexyl)methyl]-8-[(3R)-3-phenylmorpholin-4-yl]-7H-purin-2-yl)ethanone]", "IC50": 53.3}
{"smiles": "C[C@@H](Nc1nc(C(=O)NS(=O)(=O)N(C)C)nc2nc(N3CCOC[C@H]3c3ccccc3)n(C[C@H]3CC[C@H](C)CC3)c12)C1CCC1", "note": "[Example 12.24, 6-{[(1R)-1-cyclobutylethyl]amino}-N-(dimethylsulfamoyl)-7-[(trans-4-methylcyclohexyl)methyl]-8-[(3R)-3-phenylmorpholin-4-yl]-7H-purine-2-carboxamide]", "IC50": 1.41}
{"smiles": "Cc1cccc(-c2nc3nc(C(=O)NS(C)(=O)=O)nc(N[C@H](C)C4CC4)c3n2Cc2ccc(C(F)(F)F)cc2)c1", "note": "[Example 12.25, 6-{[(1R)-1-cyclopropylethyl]amino}-8-(3-methylphenyl)-N-(methylsulfonyl)-7-[4-(trifluoromethyl)benzyl]-7H-purine-2-carboxamide]", "IC50": 1070}
{"smiles": "Cc1cccc(-c2nc3nc(-c4nnn[nH]4)nc(N[C@H](C)C4CC4)c3n2Cc2ccc(C(F)(F)F)cc2)c1", "note": "[Example 12.26, N-[(1R)-1-cyclopropylethyl]-8-(3-methylphenyl)-2-(1H-tetrazol-5-yl)-7-[4-(trifluoromethyl)benzyl]-7H-purin-6-amine]", "IC50": 53}
{"smiles": "Cc1cccc(-c2nc3nc(C(N)=O)nc(N[C@H](C)C4CC4)c3n2Cc2ccc(C(F)(F)F)cc2)c1", "note": "[Example 12.27, 6-{[(1R)-1-cyclopropylethyl]amino}-8-(3-methylphenyl)-7-[4-(trifluoromethyl)benzyl]-7H-purine-2-carboxamide]", "IC50": 2040}
{"smiles": "Cc1cccc(-c2nc3nc(-c4nc[nH]n4)nc(N[C@H](C)C4CC4)c3n2Cc2ccc(C(F)(F)F)cc2)c1", "note": "[Example 12.28, N-[(1R)-1-cyclopropylethyl]-8-(3-methylphenyl)-2-(1H-1,2,4-triazol-3-yl)-7-[4-(trifluoromethyl)benzyl]-7H-purin-6-amine]", "IC50": 314}
{"smiles": "Cc1cccc(-c2nc3nc(C(N)=O)nc(N[C@H](C)C4CCC4)c3n2Cc2ccc(C(F)(F)F)cc2)c1", "note": "[Example 12.29, 6-{[(1R)-1-cyclobutylethyl]amino} -8-(3-methylphenyl)-7-[4-(trifluoromethyl)benzyl]-7H-purine-2-carboxamide]", "IC50": 1410}
{"smiles": "CNC(=O)c1nc(N[C@H](C)C2CCC2)c2c(n1)nc(-c1cccc(C)c1)n2Cc1ccc(C(F)(F)F)cc1", "note": "[Example 12.30, 6-{[(1R)-1-cyclobutylethyl]amino}-N-methyl-8-(3-methylphenyl)-7-[4-(trifluoromethyl)benzyl]-7H-purine-2-carboxamide]", "IC50": 873}
{"smiles": "CONC(=O)c1nc(N[C@H](C)C2CCC2)c2c(n1)nc(-c1cc(C(C)C)ccn1)n2Cc1ccc(C(F)(F)F)cc1", "note": "[Example 12.32, 6-{[(1R)-1-cyclobutylethyl]amino}-N-methoxy-8-[4-(1-methylethyl)pyridin-2-yl]-7-[4-(trifluoromethyl)benzyl]-7H-purine-2-carboxamide]", "IC50": 42.5}
{"smiles": "C[C@@H](Nc1nc(CO)nc2nc(N3CCOC[C@H]3c3ccccc3)n(Cc3ccc(C(F)(F)F)cc3)c12)C1CCC1", "note": "[Example 12.33, (6-{[(1R)-1-cyclobutylethyl]amino}-8-[(3R)-3-phenylmorpholin-4-yl]-7-[4-(trifluoromethyl)benzyl]-7H-purin-2-yl)methanol]", "IC50": 151}
{"smiles": "CC(C)c1ccnc(-c2nc3nc(CO)nc(N[C@H](C)C4CCC4)c3n2C[C@H]2CC[C@H](C)CC2)c1", "note": "[Example 12.34, (6-{[(1R)-1-cyclobutylethyl]amino}-7-[(trans-4-methylcyclohexyl)methyl]-8-[4-(1-methylethyl)pyridin-2-yl]-7H-purin-2-yl)methanol]", "IC50": 301}
{"smiles": "C[C@@H](Nc1nc(NCCO)nc2nc(N3CCOC[C@H]3c3ccccc3)n(C[C@H]3CC[C@H](C)CC3)c12)C1CCC1", "note": "[Example 13.1, 2-((6-(((R)-1-cyclobutylethyl)amino)-7-((trans-4-methylcyclohexyl)methyl)-8-((R)-3-phenylmorpholino)-7H-purin-2-yl)amino)ethanol]", "IC50": 885}
{"smiles": "C[C@@H](Nc1nc(N2CCC[C@H]2C(=O)O)nc2nc(N3CCOC[C@H]3c3ccccc3)n(C[C@H]3CC[C@H](C)CC3)c12)C1CCC1", "note": "[Example 13.2, 1-(6-{[(1R)-1-cyclobutylethyl]amino}-7-[(trans-4-methylcyclohexyl)methyl]-8-[(3R)-3-phenylmorpholin-4-yl]-7H-purin-2-yl)-L-proline]", "IC50": 987}
{"smiles": "C[C@@H](Nc1nc(N2CCC[C@@H]2C(=O)O)nc2nc(N3CCOC[C@H]3c3ccccc3)n(C[C@H]3CC[C@H](C)CC3)c12)C1CCC1", "note": "[Example 13.4, 1-(6-{[(1R)-1-cyclobutylethyl]amino}-7-[(trans-4-methylcyclohexyl)methyl]-8-[(3R)-3-phenylmorpholin-4-yl]-7H-purin-2-yl)-D-proline]", "IC50": 96.1}
{"smiles": "C[C@@H](Nc1nc(NC(C)(C)C(=O)O)nc2nc(N3CCOC[C@H]3c3ccccc3)n(C[C@H]3CC[C@H](C)CC3)c12)C1CCC1", "note": "[Example 13.5, N-(6-{[(1R)-1-cyclobutylethyl]amino}-7-[(trans-4-methylcyclohexyl)methyl]-8-[(3R)-3-phenylmorpholin-4-yl]-7H-purin-2-yl)-2-methylalanine]", "IC50": 260}
{"smiles": "C[C@@H](Nc1nc(NCC(=O)O)nc2nc(N3CCOC[C@H]3c3ccccc3)n(C[C@H]3CC[C@H](C)CC3)c12)C1CCC1", "note": "[Example 13.6, N-(6-{[(1R)-1-cyclobutylethyl]amino}-7-[(trans-4-methylcyclohexyl)methyl]-8-[(3R)-3-phenylmorpholin-4-yl]-7H-purin-2-yl)glycine]", "IC50": 146}
{"smiles": "C[C@@H](Nc1nc(N2CCC[C@]2(C)C(=O)O)nc2nc(N3CCOC[C@H]3c3ccccc3)n(C[C@H]3CC[C@H](C)CC3)c12)C1CCC1", "note": "[Example 13.7, 1-(6-{[(1R)-1-cyclobutylethyl]amino}-7-[(trans-4-methylcyclohexyl)methyl]-8-[(3R)-3-phenylmorpholin-4-yl]-7H-purin-2-yl)-2-methyl-D-proline]", "IC50": 224}
{"smiles": "C[C@@H](Nc1nc(N(C)CC(=O)O)nc2nc(N3CCOC[C@H]3c3ccccc3)n(C[C@H]3CC[C@H](C)CC3)c12)C1CCC1", "note": "[Example 13.8, N-(6-{[(1R)-1-cyclobutylethyl]amino}-7-[(trans-4-methylcyclohexyl)methyl]-8-[(3R)-3-phenylmorpholin-4-yl]-7H-purin-2-yl)-N-methylglycine]", "IC50": 120}
{"smiles": "C[C@@H](Nc1nc(N2CCC(C(=O)O)C2)nc2nc(N3CCOC[C@H]3c3ccccc3)n(C[C@H]3CC[C@H](C)CC3)c12)C1CCC1", "note": "(stereo partly drawn) [Example 13.9, 1-(6-{[(1R)-1-cyclobutylethyl]amino}-7-[(trans-4-methylcyclohexyl)methyl]-8-[(3R)-3-phenylmorpholin-4-yl]-7H-purin-2-yl)pyrrolidine-3-carboxylic acid]", "IC50": 199}
{"smiles": "CSC1(C(=O)O)CCN(c2nc(N[C@H](C)C3CCC3)c3c(n2)nc(N2CCOC[C@H]2c2ccccc2)n3C[C@H]2CC[C@H](C)CC2)C1", "note": "(stereo partly drawn) [Example 13.10, 1-(6-{[(1R)-1-cyclobutylethyl]amino}-7-[(trans-4-methylcyclohexyl)methyl]-8-[(3R)-3-phenylmorpholin-4-yl]-7H-purin-2-yl)-3-(methylsulfanyl)pyrrol idine-3-carboxylic acid]", "IC50": 248}
{"smiles": "C[C@@H](Nc1nc(N2CC(C(=O)O)C(C)(C)C2)nc2nc(N3CCOC[C@H]3c3ccccc3)n(C[C@H]3CC[C@H](C)CC3)c12)C1CCC1", "note": "(stereo partly drawn) [Example 13.11, 1-(6-{[(1R)-1-cyclobutylethyl]amino}-7-[(trans-4-methylcyclohexyl)methyl]-8-[(3R)-3-phenylmorpholin-4-yl]-7H-purin-2-yl)-4,4-dimethylpyrrolidine-3 - carboxylic acid]", "IC50": 95.9}
{"molecular_target": "T1, HDM2", "test": "HDM2 FRET assay (inhibition of binding of FITC labeled p53-pocket peptide to HDM2)", "details": "read-out: % inh. at 1000 nM; at 1000 nM compound", "method_in_brief": "as §1", "units": {"inhibition at 1 µM": "%"}}
{"smiles": "CNc1nc(N[C@H](C)C2CCC2)c2c(n1)nc(N1CCOC[C@H]1c1ccccc1)n2C[C@H]1CC[C@H](C)CC1", "note": "[Example 13.3, N^6-[(1R)-1-cyclobutylethyl]-N^2-methyl-7-[(trans-4-methylcyclohexyl)methyl]-8-[(3R)-3-phenylmorpholin-4-yl]-7H-purine-2,6-diamine]", "inhibition at 1 µM": 46}
